Measured values: paper PMC12470154, “In Vitro Evaluation of Antimicrobial Amyloidogenic Peptides for the Treatment of Early and Mature Bacterial Biofilms” (International Journal of Molecular Sciences, 2025)

Columns and labels:
S. aureus (129B strain) [1] = experiment: Mature biofilms, crystal violet staining; assay type: cell-based, Staphylococcus aureus; set-up: key: ↓: Decrease in the parameter (optical density) compared to the negative control; −: No decrease in the optical density; ↑: Reverse effect (increase in the optical density compared to the control); details: mature biofilm: peptide added after 24 h, further 24 h; 0.01-10 mg/mL
Experimental: (§1) After 24 h of incubation, the medium was removed. To assess the total biofilm biomass, the wells were rinsed with sterile PBS solution and stained with 0.1% crystal violet. The dye bound to the surface was then removed using 95% ethanol. To assess the presence of metabolically active cells, 0.3% MTT (PanEco Ltd., Moscow, Russia) solution was added to each well, and the plates were incubated at 37 °C for 2 h. After incubation, the MTT solution was removed, 150 µL of DMSO (Chimmed, Moscow, Russia) and 25 µL of glycine buffer were added to each well, and the plates were left at room temperature for 15 min. The resulting solutions were transferred to a flat-bottom 96-well plate, and optical density was measured at 595 nm.
(§2) A stationary-phase culture of the tested strain was diluted 100-fold in fresh medium (200 µL per well) and added to the wells of a 96-well round-bottom plate. […] After another 24 h, the medium was removed and the wells were rinsed with sterile PBS to eliminate planktonic cells. The procedures for assessing total biofilm biomass and cell metabolic activity using crystal violet and MTT assays were performed in the same manner as described above for early-stage biofilm experiments.

MRSA (SA 180-F strain) = experiment: Mature biofilms, MTT assay; assay type: cell-based, methicillin-resistant Staphylococcus aureus; set-up: key: ↓: Decrease in the parameter (optical density) compared to the negative control; −: No decrease in the optical density; ↑: Reverse effect (increase in the optical density compared to the control); details: mature biofilm: peptide added after 24 h, further 24 h; 0.01-10 mg/mL
Experimental: as §1, §2

S. aureus (129B strain) [2] = experiment: Mature biofilms, MTT assay; assay type: cell-based, Staphylococcus aureus; details: mature biofilm
Experimental: as §1, §2

S. aureus (129B strain) [3] = experiment: Mature biofilms, MTT assay; assay type: cell-based, Staphylococcus aureus; set-up: key: ↓: Decrease in the parameter (optical density) compared to the negative control; −: No decrease in the parameter; ↑: Reverse effect (increase in the optical density compared to the control); details: mature biofilm: peptide added after 24 h, further 24 h; 0.01-10 mg/mL
Experimental: as §1, §2

| Sequence | change of optical density after crystal violet staining vs negative control (S. aureus (129B strain) [1]) | change of optical density after MTT assay vs negative control (MRSA (SA 180-F strain)) | metabolic activity of cells within mature biofilms (MTT) (S. aureus (129B strain) [2]; 0.01, 0.1, 1, and 10 mg/mL) | concentration given with ↓ (MTT) (S. aureus (129B strain) [2]) [mg/mL] | change of optical density after MTT assay vs negative control (S. aureus (129B strain) [3]) |
| --- | --- | --- | --- | --- | --- |
| RKKRRQRRRGGGGVTDFGVFVEI [R23I^T, TAT cell-penetrating peptide linked via glycine linker to amyloidogenic fragment of S1 ribosomal protein of T. thermophilus] | − | − |  |  |  |
| ITDFGIFIGLGGGGSRQIKIWFQNRRMKWKK [I31K^P] |  |  | decreased the metabolic activity | 0.01 | ↓ (0.01 mg/mL) |
